Test results from patent publication US6159953A, “Anti-malarial composition and method of use” (Catholic University of America, priority 1992, dated 2000).

Legend:
[1] = tested on: Plasmodium falciparum, Sierra Leone clone D6; assay: Inhibition of P. falciparum proliferation, [G-3H]-hypoxanthine incorporation, Sierra Leone clone D6 (chloroquine-sensitive); type: cell-based; settings: for IC50: Plasmodium falciparum
Description: 3. Effects of pyrimidine analogues alone or in combination with normal pyrimidine bases or nucleosides or with amino acid derivatives can be tested in malaria parasite-infected erythrocytes. Varying concentrations of pyrimidine analogues in culture medium are added to individual wells of microtitre plates [Desjardins, R. E. et al., Antimicrob. […] Parasitemic erythrocytes in culture medium are added to each well. […] As an alternative to adding a radioactive precursor of nucleic acid biosynthesis, the end point for determining the effects of added drugs can be the incorporation of a radioactive amino acid, e.g., [U-^14 C]-isoleucine, into parasite protein.
Fluoropyrimidines, dispersed in 25 μl of culture medium, were added to individual wells of a 96-well microtitre plate. […] Finally, the incorporation of 0.5 μCi of [G-^3 H]hypoxanthine (1 Ci/mmol) into nucleic acids in each well was determined; this served as a measure of parasite proliferation. […] In a second method, the increase in parasitemia was determined directly by smearing infected erythrocytes on microscope slides, staining with Giemsa stain, and determining the ratio of infected to non-infected erythrocytes. In a third method, parasite-infected erythrocytes were incubated with [U-^14 C]-isoleucine (0.5 μCi; 0.33 Ci/mmol), and the amount of radioactivity incorporated into precipitable proteins determined.

mammalian cell lines = assay: Toxicity to a battery of mammalian cell lines; type: cell-based, human and mouse
From the text: 2. Effects of orotate analogues on cell viability and the ability to synthesize nucleic acids from radioactive precursors, and the rescuing effects of normal pyrimidine bases or nucleosides or amino acid derivatives such as histidinol, can be tested in human-derived tissue culture cell lines. Human HT-1080 human sarcoma cells [Rusheed, S., et al., Cancer, 33:1027-30 (1974)], human diploid IMR-90 cells [Nichols, W. W., et al., Science, 196:60-3 (1977)], human cervical […] HeLa S3 cells [Puck, T. T., et al., J. Exp. Med., 103:273-84 (1956)], HL-60 human myeloid leukemia cells [Collins, S. J., et al., Nature, 270:347-9 (1977)], and mouse leukemia L-1210 cells [Moore, G. E., J. Nat. […] The growth medium most suitable for each cell line can be determined by reference to the publications cited above: briefly, HT-1080 cells are maintained in Eagle's Minimal Essential Medium (EMEM) supplemented with 5% fetal bovine serum (FBS) and 2 mM L-glutamine; IMR-90 cells are grown in EMEM supplemented with 10% FBS, 10 mM Hepes buffer, 0.21% NaHCO3, and 2 mM L-glutamine. […]
Toxicity of pyrimidine analogues to cultured human cells is determined as follows. […] Thereafter, the number of cells in each well is determined. […] Cells that grow in suspension (e.g., HL-60 and L-1210 cells) are transferred to centrifuge tubes, pelleted at low speed, washed, and the viability determined as above. […]

## O=C(O)c1[nH]c(=O)[nH]c(=O)c1F [5-fluoro-orotate]
[1]; D6, Example 3, Table 2, hypoxanthine uptake
  IC50: 2.2 nM
[1]; D6, Sierra Leone clone, Table 1, mean ± S.D. of five independent drug response curves
  IC50: 5.8 ± 3.1 nM
[1]; chloroquine-sensitive Sierra Leone clone
  times more active than chloroquine: 1.6 times
Mammalian cell lines; 0.1 to 1 μM, in culture
  toxicity to rapidly dividing mammalian cells: not toxic to rapidly dividing mammalian cells in culture
Mammalian cell lines; read-out: IC50 range over the mammalian cell lines
  IC50: 900 to 10000 nM
